From PubChem BioAssay (NCI)
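Interpolation was linear, between the two tested concentrations surrounding the appropriate level; five concentrations were tested over 48 hours in 96-well plates. TGI: total growth inhibition.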

Legend:
Test in all cases: growth of human tumour cells (NCI), 48 h
MDA-MB-435 = test system: MDA-MB-435
OVCAR-5 ovarian = test system: OVCAR-5 ovarian
UO-31 renal = test system: UO-31 renal
SN12C renal = test system: SN12C renal
SW-620 colon = test system: SW-620 colon
SF-295 CNS = test system: SF-295 CNS
HCC-2998 colon = test system: HCC-2998 colon
786-0 renal = test system: 786-0 renal
DU-145 prostate = test system: DU-145 prostate
A498 renal = test system: A498 renal
SF-539 CNS = test system: SF-539 CNS
HCT-15 colon = test system: HCT-15 colon
BT-549 breast = test system: BT-549 breast
TK-10 renal = test system: TK-10 renal
M14 melanoma = test system: M14 melanoma
UACC-257 melanoma = test system: UACC-257 melanoma
RPMI-8226 leukemia = test system: RPMI-8226 leukemia
LOX IMVI melanoma = test system: LOX IMVI melanoma
KM12 colon = test system: KM12 colon
MCF7 breast = test system: MCF7 breast
OVCAR-4 ovarian = test system: OVCAR-4 ovarian
NCI-H460 lung = test system: NCI-H460 lung
MDA-N = test system: MDA-N
CAKI-1 renal = test system: CAKI-1 renal
SK-MEL-2 melanoma = test system: SK-MEL-2 melanoma
PC-3 prostate = test system: PC-3 prostate
SR leukemia = test system: SR leukemia
MOLT-4 leukemia = test system: MOLT-4 leukemia
A549 NSCLC = test system: A549 NSCLC
UACC-62 melanoma = test system: UACC-62 melanoma
RXF 393 renal = test system: RXF 393 renal
SK-MEL-28 melanoma = test system: SK-MEL-28 melanoma
SK-OV-3 ovarian = test system: SK-OV-3 ovarian
SNB-19 CNS = test system: SNB-19 CNS
SK-MEL-5 melanoma = test system: SK-MEL-5 melanoma
COLO 205 colon = test system: COLO 205 colon
HOP-92 NSCLC = test system: HOP-92 NSCLC
MDA-MB-231 breast = test system: MDA-MB-231 breast
SF-268 CNS = test system: SF-268 CNS
HS 578T breast = test system: HS 578T breast
K-562 leukemia = test system: K-562 leukemia
T-47D breast = test system: T-47D breast
SNB-75 CNS = test system: SNB-75 CNS
HL-60(TB) leukemia = test system: HL-60(TB) leukemia
HCT-116 colon = test system: HCT-116 colon
ACHN renal = test system: ACHN renal
U251 CNS = test system: U251 CNS
NCI-H23 lung = test system: NCI-H23 lung
OVCAR-3 ovarian = test system: OVCAR-3 ovarian
IGROV1 ovarian = test system: IGROV1 ovarian
NCI-H522 lung = test system: NCI-H522 lung
HOP-62 NSCLC = test system: HOP-62 NSCLC
NCI-H226 lung = test system: NCI-H226 lung
NCI/ADR-RES ovarian = test system: NCI/ADR-RES ovarian
EKVX NSCLC = test system: EKVX NSCLC
HT29 colon = test system: HT29 colon
CCRF-CEM leukemia = test system: CCRF-CEM leukemia
OVCAR-8 ovarian = test system: OVCAR-8 ovarian

CC(C)(C)n1[nH]c(=O)n(C(C)(C)C)c1=O
TGI (MDA-MB-435): > 100 µM
TGI (OVCAR-5 ovarian): > 100 µM
TGI (UO-31 renal): > 100 µM
TGI (SN12C renal): > 100 µM
TGI (SW-620 colon): > 100 µM
TGI (SF-295 CNS): > 100 µM
TGI (HCC-2998 colon): > 100 µM
TGI (786-0 renal): > 100 µM
TGI (DU-145 prostate): > 100 µM
TGI (A498 renal): > 100 µM
TGI (SF-539 CNS): > 100 µM
TGI (HCT-15 colon): > 100 µM
TGI (BT-549 breast): > 100 µM
TGI (TK-10 renal): > 100 µM
TGI (M14 melanoma): > 100 µM
TGI (UACC-257 melanoma): > 100 µM
TGI (RPMI-8226 leukemia): > 100 µM
TGI (LOX IMVI melanoma): > 100 µM
TGI (KM12 colon): > 100 µM
TGI (MCF7 breast): > 100 µM
TGI (OVCAR-4 ovarian): > 100 µM
TGI (NCI-H460 lung): > 100 µM
TGI (MDA-N): > 100 µM
TGI (CAKI-1 renal): > 100 µM
TGI (SK-MEL-2 melanoma): > 100 µM
TGI (PC-3 prostate): > 100 µM
TGI (SR leukemia): > 100 µM
TGI (MOLT-4 leukemia): > 100 µM
TGI (A549 NSCLC): > 100 µM
TGI (UACC-62 melanoma): > 100 µM
TGI (RXF 393 renal): > 100 µM
TGI (SK-MEL-28 melanoma): > 100 µM
TGI (SK-OV-3 ovarian): > 100 µM
TGI (SNB-19 CNS): > 100 µM
TGI (SK-MEL-5 melanoma): > 100 µM
TGI (COLO 205 colon): > 100 µM
TGI (HOP-92 NSCLC): > 100 µM
TGI (MDA-MB-231 breast): > 100 µM
TGI (SF-268 CNS): > 100 µM
TGI (HS 578T breast): > 100 µM
TGI (K-562 leukemia): > 100 µM
TGI (T-47D breast): > 100 µM
TGI (SNB-75 CNS): > 100 µM
TGI (HL-60(TB) leukemia): > 100 µM
TGI (HCT-116 colon): > 100 µM
TGI (ACHN renal): > 100 µM
TGI (U251 CNS): > 100 µM
TGI (NCI-H23 lung): > 100 µM
TGI (OVCAR-3 ovarian): > 100 µM

COC(=O)Cc1cccc2c(=O)c(S(=O)(=O)NC(=O)Nc3ccc(Cl)cc3)c(-c3ccccc3)oc12
TGI (MDA-MB-435): > 100 µM
TGI (OVCAR-5 ovarian): > 100 µM
TGI (UO-31 renal): > 100 µM
TGI (SN12C renal): > 100 µM
TGI (SW-620 colon): > 100 µM
TGI (SF-295 CNS): > 100 µM
TGI (IGROV1 ovarian): > 100 µM
TGI (HCC-2998 colon): > 100 µM
TGI (NCI-H522 lung): 38.6 µM
TGI (786-0 renal): > 100 µM
TGI (DU-145 prostate): > 100 µM
TGI (SF-539 CNS): > 100 µM
TGI (HCT-15 colon): > 100 µM
TGI (BT-549 breast): > 100 µM
TGI (TK-10 renal): > 100 µM
TGI (M14 melanoma): > 100 µM
TGI (HOP-62 NSCLC): > 100 µM
TGI (NCI-H226 lung): > 100 µM
TGI (NCI/ADR-RES ovarian): > 100 µM
TGI (UACC-257 melanoma): > 100 µM
TGI (LOX IMVI melanoma): > 100 µM
TGI (EKVX NSCLC): > 100 µM
TGI (KM12 colon): > 100 µM
TGI (MCF7 breast): > 100 µM
TGI (OVCAR-4 ovarian): > 100 µM
TGI (NCI-H460 lung): > 100 µM
TGI (MDA-N): > 100 µM
TGI (CAKI-1 renal): 74.3 µM
TGI (PC-3 prostate): > 100 µM
TGI (SR leukemia): > 100 µM
TGI (HT29 colon): > 100 µM
TGI (MOLT-4 leukemia): > 100 µM
TGI (A549 NSCLC): > 100 µM
TGI (UACC-62 melanoma): > 100 µM
TGI (CCRF-CEM leukemia): > 100 µM
TGI (SK-MEL-28 melanoma): > 100 µM
TGI (SK-OV-3 ovarian): > 100 µM
TGI (SNB-19 CNS): > 100 µM
TGI (SK-MEL-5 melanoma): > 100 µM
TGI (COLO 205 colon): > 100 µM
TGI (HOP-92 NSCLC): > 100 µM
TGI (MDA-MB-231 breast): > 100 µM
TGI (SF-268 CNS): > 100 µM
TGI (OVCAR-8 ovarian): > 100 µM
TGI (HS 578T breast): > 100 µM
TGI (K-562 leukemia): > 100 µM
TGI (SNB-75 CNS): > 100 µM
TGI (HCT-116 colon): > 100 µM
TGI (ACHN renal): 63.5 µM
TGI (U251 CNS): > 100 µM
TGI (NCI-H23 lung): > 100 µM
TGI (OVCAR-3 ovarian): > 100 µM
